{"source": "patent US20170042104A1", "about": "“SUGARCANE PROCESS” (E I DU PONT DE NEMOURS AND COMPANY, priority 2014, published 2017)", "key": {"[1]": {"experiment": "Accelerated degradation of cellulosic composites buried in soil", "format": "physicochemical", "details": "buried in soil 1 month, 30° C., approximately 50% humidity; confidence interval 95%", "method": "Cellulosic pulp was mixed with various materials to study the influence of the materials in the degradation of them in soil. To evaluate the different materials developed with cellulose, an accelerated degradation protocol was developed wherein samples with different compositions were buried in a recipient containing soil, and kept for 1 month in an incubator at 30° C. and approximately 50% humidity, representing field conditions. The cellulose content was measured using thermogravimetric analyses before and after the test to evaluate degradation, indicating cellulose degradation in field.\nDifferent materials were tested, including a residue from the pulp and paper industry containing cellulosic fibers of long and short nature; inorganic fillers, mainly TiO2 and pigments. The final structure contained more than 90% of this cellulose mixture. To this mixture was added polyvinyl alcohol, up to 5% in weight, ionomer of ethylene acid copolymer, up to 5% in weight, used in the packaging industry, cationic starch, up to 5% in weight, more likely 1% to accelerate degradation, while promoting the adherence of the adjacent fibers of cellulose, urea to accelerate the degradation and nutrition of plants up to 10% in weight, more likely 5%, and AKD (alkyl ketene dimer) in a starch solution to serve as moisture barrier by changing the hydrophobicity of cellulose, more likely between 1-10 ppm."}, "[2]": {"tested_on": "sugarcane plantlet", "experiment": "Storage of plantlets in Starcla tube seed structures after chemical treatment during regeneration; field survival", "format": "in vivo", "details": "for Survival: survival after 5 weeks of growth in field", "source_text": "The effect of time, temperature, and light on storage of plantlets was studied, in combination with the effect of chemical treatment. Seed structures consisted of 4″ Starcla™ tubes. Tubes were extruded from a resin, such as a blend of polybutylene succinate, polylactic acid, and starch, using a 1½″ Davis Standard-extruder. Tubing was made with ⅝″ I.D. and cut into 4″ length tubes. The seeds were assembled by heating the bottom of the tube and pressing into a crescent shape where there is 2-3 millimeter gap between both sides. Two grams of potting media were added to each tube. One sugarcane plantlet was placed inside the tube structure ensuring the roots were placed in the soil and the shoot remained in the airspace. Two milliliters of water were added to the structure and then the top was prepared by heating and forming a crescent shape with a 2-3 millimeter gap between both sides.\nTwo types of chemical treatments were used during regeneration. The first treatment was paclobutrazol (paclo), which was introduced into the media for weeks 3 and 4 of plantlet formation. The solution contained 2% sucrose, ½ strength MS, 100 ppm cefotaxime, and 0.75 mg/L paclobutrazol. The second treatment was abscisic acid (ABA) which was introduced the day before the plantlets were removed from regeneration. The ABA treatment solution contained 1 mg/L ABA, 10 g/L sucrose, and MS solution.\nThe tubes were stored in partially closed zip bags with 25 tubes per unit. After storage the seeds were planted. No irrigation was used during the time the plantlets were growing in the field. The survival rates of the plantlets were measured after 5 weeks of growth."}, "[3]": {"tested_on": "sugarcane", "experiment": "Plantlet formation with Na silicate added to MS media; field test", "format": "in vivo", "details": "5 mM added to MS media in weeks 3 and 4; observational evidence", "method": "Plantlet formation (production of plants with shoots and roots), also called regeneration, was initiated by transferring the RPT to media without hormones. RPT fragments were made using scalpels, chopping tools, or by large scale dicing of material by mechanical means. Fragment size was determined by end usage: RPT fragments for growth in arrays were approximately 1-10 mm cubes, for growth in temporary immersion chambers somewhat larger fragments 5-20 mm were used, or the RPT was left unfragmented. The media used was MS+3% sucrose. Plantlet formation occurred at 26° C. in 60 uE/m2/sec of PAR light (16 hours on and 8 hours off), and if temporary immersion was used media was cycled over the fragments for 1 minute every 2 hours. Media was replaced weekly and was supplemented with 100 ppm carbenicillin, 0.2% PPM (Plant Preservative Mixture™, Plant Cell Technology Inc. Washington, D.C.), and/or 100 ppm cefotaxime as needed. Supplemental carbon dioxide (1500 ppm) was used in some growth cycles, but is not essential. After 3-4 weeks the MS concentration was decreased to ½ strength to encourage rooting, although not required.\nThe addition of 5 mM Na silicate to the MS media was made in weeks 3 and 4. […] Silicates accumulated in sugarcane tissues conferring anti-predatory, anti-fungal properties. […]"}, "[4]": {"tested_on": "regenerable plant tissue (RPT)", "experiment": "Culturing of regenerable plant tissue in media with BAP", "format": "cell-based, sugarcane", "details": "BAP present in the culture", "source_text": "General procedures have been previously outlined (International Publication No. WO 2013/096531, incorporated by reference herein). In summary, half-explants were trimmed of excess stalk tissue, leaving behind the proliferating buds areas. Trimmed tissue was placed into a temporary immersion chamber for liquid culture, or back onto solid media. In the case of temporary immersion, the chamber was placed in a growth chamber, or room, with 30 uE/m2/sec of PAR light, and was hooked to tubing connected to pumps to allow standard immersion cycling. Media (MS+3% sucrose+[…]+3 mg/L paclobutrazol) was changed weekly. Harvest occurred 2-20 weeks after initiation, depending on whether the tissue is grown on solid or liquid media, and the overall mass of the regenerable plant tissue (RPT).\nThe RPT was subdivided into additional growth chambers or plates as needed. Multiple rounds of growth cycles were possible."}, "[5]": {"details": "Conditions N, O: 0 weeks, not stored"}}}
{"molecule": "NC(N)=O", "note": "[urea]", "values": [{"measurement": "Influence on the degradation of cellulosic compounds", "setting": "[1]", "result": "high influence"}]}
{"molecule": "CC(C)(C)[C@@H](O)[C@@H](Cc1ccc(Cl)cc1)n1cncn1", "note": "(racemic) [Paclo, paclobutrazol]", "values": [{"measurement": "Survival", "setting": "[2]; Condition A: storage 8 weeks, temperature 10, light 0", "result": 0, "unit": "%"}, {"measurement": "Survival", "setting": "[2]; Condition B: storage 8 weeks, temperature 30, light 200", "result": 88, "unit": "%"}, {"measurement": "Survival", "setting": "[2]; Condition E: storage 4 weeks, temperature 10, light 5", "result": 0, "unit": "%"}, {"measurement": "Survival", "setting": "[2]; Condition F: storage 4 weeks, temperature 30, light 0", "result": 0, "unit": "%"}, {"measurement": "Survival", "setting": "[2]; Condition J: storage 2 weeks, temperature 10, light 0", "result": 0, "unit": "%"}, {"measurement": "Survival", "setting": "[2]; Condition K: storage 2 weeks, temperature 30, light 200", "result": 64, "unit": "%"}, {"measurement": "Survival", "setting": "[2]; [5]", "result": 16, "unit": "%"}, {"measurement": "Survival rate compared between treatments", "setting": "[2]; storage experiment of Table 3 overall", "result": "higher survival rate than the ABA treatment"}]}
{"molecule": "Na silicate", "values": [{"measurement": "Growth rate and root production in a field test", "setting": "[3]", "result": "improves growth rate and root production"}]}
{"molecule": "c1ccc(CNc2ncnc3nc[nH]c23)cc1", "note": "[BAP, 6-Benzylaminopurine]", "values": [{"measurement": "Root formation", "setting": "[4]", "result": "No root formation is detected"}]}
{"molecule": "CC1=CC(=O)CC(C)(C)[C@@]1(O)/C=C/C(C)=C\\C(=O)O", "note": "[ABA, abscisic acid]", "values": [{"measurement": "Survival", "setting": "[2]; Condition C: storage 8 weeks, temperature 10, light 5", "result": 0, "unit": "%"}, {"measurement": "Survival", "setting": "[2]; Condition D: storage 8 weeks, temperature 30, light 0", "result": 0, "unit": "%"}, {"measurement": "Survival", "setting": "[2]; Condition G: storage 4 weeks, temperature 10, light 0", "result": 0, "unit": "%"}, {"measurement": "Survival", "setting": "[2]; Condition H: storage 4 weeks, temperature 30, light 200", "result": 50, "unit": "%"}, {"measurement": "Survival", "setting": "[2]; Condition L: storage 2 weeks, temperature 10, light 5", "result": 0, "unit": "%"}, {"measurement": "Survival", "setting": "[2]; Condition M: storage 2 weeks, temperature 30, light 0", "result": 0, "unit": "%"}, {"measurement": "Survival", "setting": "[2]; [5]", "result": 12, "unit": "%"}]}
